Assay results as given in patent publication US7238775B2, “Receptor(SSTR4)-selective somatostatin analogs” (The Salk Institute for Biological Studies, priority 2002, dated 2007).
Numbered stars: 1 amine (or outer) side, 2 acyl side, 3 side chain; on linkers, the order of the positions; unused ones are H or OH. Bridge positions count the residues as written; N and C are the ends. Square brackets hold non-standard residues; d marks the D form. Ends that are not written are not given here. Peptide text beside a SMILES is read from it. * marks the point of attachment. DOTA = O=C(O)CN1CCN(CC(=O)O)CCN(CC(=O)*)CCN(CC(=O)O)CC1; d2Nal(3S-Me) = C[C@@H](c1ccc2ccccc2c1)[C@@H](N)C(=O)O; X1 = C[C@H](c1ccc2ccccc2c1)[C@H](N[*:1])C(=O)[*:2]; Phe(4-NH2) = Nc1ccc(C[C@H](N)C(=O)O)cc1; 2Nal = N[C@@H](Cc1ccc2ccccc2c1)C(=O)O; GABA = NCCCC(=O)O

Target: T1, hSSTR1 (Homo sapiens, UniProt P30872)
T1 construct: expressed in transfected cells; host or cells: CHO-K1 cells and CCL39 cells
T1 sequence (P30872 whole entry): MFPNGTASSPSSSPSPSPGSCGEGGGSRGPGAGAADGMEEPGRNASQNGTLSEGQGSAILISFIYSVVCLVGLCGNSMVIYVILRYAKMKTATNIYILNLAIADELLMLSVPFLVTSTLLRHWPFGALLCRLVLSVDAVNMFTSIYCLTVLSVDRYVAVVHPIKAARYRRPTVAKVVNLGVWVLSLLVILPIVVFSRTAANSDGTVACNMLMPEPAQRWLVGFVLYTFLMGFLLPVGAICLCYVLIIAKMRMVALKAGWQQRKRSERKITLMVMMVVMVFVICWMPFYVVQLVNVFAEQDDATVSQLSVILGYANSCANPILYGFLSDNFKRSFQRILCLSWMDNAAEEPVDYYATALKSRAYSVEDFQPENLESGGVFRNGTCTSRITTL
Experiment: Displacement of 125I-[Leu8,D-Trp22,Tyr25]SRIF-28 from cloned receptor, membrane pellet autoradiography
Format: binding
Details: inhibition of 125I-SRIF-28 radioligand binding, cloned human receptor
Experimental: (§1) In vitro Bioassay: The effects of the various somatostatin analogs are tested in vitro for their ability to bind to isolated cloned receptors expressed on CHO-K1 cells and CCL39 cells. CHO-K1 cells are grown in Ham's F-12 medium, and CCL39 cells are grown in Dulbecco's modified Eagle's medium/Ham's F-12(1:1) mix, supplemented with 10% fetal bovine serum, 100 U/ml penicillin and 100 μg/ml streptomycin, in humidified air containing 5% CO2 at 37° C.
(§2) Cells are washed twice with and scraped into ice-cold 0.05 M Tris-HCl (pH 7.4), collected by centrifugation, and homogenized using a rotor/stator/system in the same buffer. After centrifugation at 120 g for 5 min at 4° C., the supernatant is collected and centrifuged again at 48,000 g for 30 min at 4° C. The resulting pellet is resuspended in ice-cold Tris buffer, transferred into a microfuge tube, and centrifuged at 20,000 g for 15 min at 4° C. After withdrawal of the supernatant, the membrane pellet is stored at −80° C.
Receptor autoradiography is performed on 20 μm thick cryostat sections of the membrane pellets, mounted on microscope slides, and then stored at −20° C. […] […] […] IC50 values are calculated after quantification of the data using a computer-assisted image processing system as known in this art.
(§3) The numbers in parentheses indicate the number of times the particular binding test was carried out.

Row | Compound | IC50
1 | C[C@@H](O)[C@@H]1NC(=O)[C@H](CCCCN)NC(=O)[C@H](Cc2c[nH]c3ccccc23)NC(=O)[C@H](Cc2ccc(CN)cc2)NC(=O)[C@H](Cc2ccccc2)NC(=O)[C@@H](NC(=O)[C@@H](N)Cc2ccc(O)cc2)CSSC[C@@H](C(=O)O)NC(=O)[C@H](Cc2ccccc2)NC1=O [Peptide No. 15, (cyclo)H-Tyr-Cys-Phe-4 Amp-Trp-Lys-Thr-Phe-Cys-OH] | > 1000 nM
2 | C[C@@H](O)[C@@H]1NC(=O)[C@H](CCCCN)NC(=O)[C@H](Cc2c[nH]c3ccccc23)NC(=O)[C@H](Cc2ccc(CN)cc2)NC(=O)[C@H](Cc2ccccc2)NC(=O)[C@@H](NC(=O)[C@H](Cc2ccc(O)cc2)NC(N)=O)CSSC[C@@H](C(=O)O)NC(=O)[C@H](Cc2ccccc2)NC1=O [Peptide No. 15A, (cyclo)Cbm-Tyr-Cys-Phe-Amp-Trp-Lys-Thr-Phe-Cys-OH] | > 1000 nM
3 | C[C@H](c1ccc2ccccc2c1)[C@@H]1NC(=O)[C@H](Cc2ccc(O)cc2)NC(=O)[C@H](Cc2ccccc2)NC(=O)[C@H](N)CSSC[C@@H](C(=O)O)NC(=O)[C@H](Cc2ccccc2)NC(=O)[C@H]([C@@H](C)O)NC(=O)[C@H](CCCCN)NC1=O [Peptide No. 16A, (cyclo)H-D-Cys-Phe-Tyr-threo-(2S,3R)C^βMe-2Nal-Lys-Thr-Phe-Cys-OH] (H-[dC]FY[X1]KTFC-OH; disulfide 1-8) | > 10000 nM
4 | C[C@H](c1ccc2ccccc2c1)[C@@H]1NC(=O)[C@H](Cc2ccc(O)cc2)NC(=O)[C@H](Cc2ccccc2)NC(=O)[C@@H](N)CSSC[C@@H](C(=O)O)NC(=O)[C@H](Cc2ccccc2)NC(=O)[C@H]([C@@H](C)O)NC(=O)[C@H](CCCCN)NC1=O [Peptide No. 17A, (cyclo)H-Cys-Phe-Tyr-threo-(2S,3R)C^βMe-2Nal-Lys-Thr-Phe-Cys-OH] (H-CFY[X1]KTFC-OH; disulfide 1-8) | > 1000 nM

Target: T2, hSSTR2 (Homo sapiens, UniProt P30874)
T2 construct: expressed in transfected cells; host or cells: CHO-K1 cells and CCL39 cells
T2 sequence (P30874 whole entry): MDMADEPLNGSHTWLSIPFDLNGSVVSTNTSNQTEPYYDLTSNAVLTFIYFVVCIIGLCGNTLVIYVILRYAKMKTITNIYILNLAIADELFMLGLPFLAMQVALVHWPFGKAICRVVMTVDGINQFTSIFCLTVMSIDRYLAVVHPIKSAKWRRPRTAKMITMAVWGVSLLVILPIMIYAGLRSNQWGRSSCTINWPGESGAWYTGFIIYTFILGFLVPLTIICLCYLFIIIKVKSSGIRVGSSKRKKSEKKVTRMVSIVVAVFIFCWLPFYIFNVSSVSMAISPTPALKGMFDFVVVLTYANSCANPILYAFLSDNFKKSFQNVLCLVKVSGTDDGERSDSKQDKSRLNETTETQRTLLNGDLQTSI
Experiment: as above
Format: binding
Details: inhibition of 125I-SRIF-28 radioligand binding, cloned human receptor
Experimental: as §1, §2
(§4) Receptor autoradiography is performed on 20 μm thick cryostat sections of the membrane pellets, mounted on microscope slides, and then stored at −20° C. […] Increasing concentrations of the unlabeled peptide are used ranging from 0.1-1000 nM. […] IC50 values are calculated after quantification of the data using a computer-assisted image processing system as known in this art.
as §3

Row | Compound | IC50
5 | C[C@@H](O)[C@@H]1NC(=O)[C@H](CCCCN)NC(=O)[C@H](Cc2ccc3ccccc3c2)NC(=O)[C@H](Cc2ccc(N)cc2)NC(=O)[C@H](Cc2ccccc2)NC(=O)[C@@H](N)CSSC[C@@H](C(=O)O)NC(=O)[C@H](Cc2ccccc2)NC1=O [Peptide No. 5, (cyclo)H-Cys-Phe-4Aph-2Nal-Lys-Thr-Phe-Cys-OH] (H-CF[Phe(4-NH2)][2Nal]KTFC-OH; disulfide 1-8) | > 1000 nM

Target: T3, hSSTR4 (Homo sapiens, UniProt P31391)
T3 construct: expressed in transfected cells; host or cells: CHO-K1 cells and CCL39 cells
T3 sequence (P31391 whole entry): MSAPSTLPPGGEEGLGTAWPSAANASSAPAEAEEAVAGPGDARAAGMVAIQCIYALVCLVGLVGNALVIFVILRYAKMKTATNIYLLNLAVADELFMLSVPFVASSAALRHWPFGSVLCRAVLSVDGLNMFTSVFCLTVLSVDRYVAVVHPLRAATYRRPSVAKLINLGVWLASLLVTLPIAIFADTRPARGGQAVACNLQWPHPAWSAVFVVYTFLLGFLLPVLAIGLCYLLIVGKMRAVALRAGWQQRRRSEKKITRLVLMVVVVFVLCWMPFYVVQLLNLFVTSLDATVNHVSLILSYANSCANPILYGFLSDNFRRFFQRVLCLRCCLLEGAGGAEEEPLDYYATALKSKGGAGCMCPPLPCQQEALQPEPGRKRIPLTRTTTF
Experiment: as above
Format: binding
Details: not given
Experimental: as §1, §2, §4, §3

Row | Compound | selectivity in binding to SSTR4 compared with the other 4 receptors (in words) | selectivity for SSTR4 over the closest other receptor
6 | C[C@@H]1NC(=O)[C@H](Cc2ccccc2)NC(=O)[C@@H](NC(=O)CN2CCN(CC(=O)O)CCN(CC(=O)O)CCN(CC(=O)O)CC2)CSSC[C@@H](C(=O)O)NC(=O)[C@H](Cc2ccccc2)NC(=O)[C@H]([C@@H](C)O)NC(=O)[C@H](CCCCN)NC(=O)[C@H](Cc2c[nH]c3ccccc23)NC1=O [Peptide 12C] ({DOTA}-CFAWKTFC-OH; disulfide 1-8) | continues to show selectivity in binding to hSSTR4 | 
7 | C[C@@H]1NC(=O)[C@H](Cc2ccccc2)NC(=O)[C@@H](NC(=O)CCCNC(=O)CN2CCN(CC(=O)O)CCN(CC(=O)O)CCN(CC(=O)O)CC2)CSSC[C@@H](C(=O)O)NC(=O)[C@H](Cc2ccccc2)NC(=O)[C@H]([C@@H](C)O)NC(=O)[C@H](CCCCN)NC(=O)[C@H](Cc2c[nH]c3ccccc23)NC1=O [Peptide 12D] ({DOTA-GABA}-CFAWKTFC-OH; disulfide 1-8) | continues to show selectivity in binding to hSSTR4 | 
8 | C[C@@H]1NC(=O)[C@H](Cc2ccccc2)NC(=O)[C@@H](N)CSSC[C@@H](C(=O)O)NC(=O)[C@H](Cc2ccccc2)NC(=O)[C@H]([C@@H](C)O)NC(=O)[C@H](CCCCN)NC(=O)[C@@H](Cc2c[nH]c3ccccc23)NC1=O [Peptide No. 11, (cyclo)H-Cys-Phe-Ala-D-Trp-Lys-Thr-Phe-Cys-OH] (H-CFA[dW]KTFC-OH; disulfide 1-8) | selectively binds to SSTR4 | 
9 | C[C@H](c1ccc2ccccc2c1)[C@@H]1NC(=O)[C@H](Cc2ccc(O)cc2)NC(=O)[C@H](Cc2ccccc2)NC(=O)[C@H](N)CSSC[C@@H](C(=O)O)NC(=O)[C@H](Cc2ccccc2)NC(=O)[C@H]([C@@H](C)O)NC(=O)[C@H](CCCCN)NC1=O [Peptide No. 16A, (cyclo)H-D-Cys-Phe-Tyr-threo-(2S,3R)C^βMe-2Nal-Lys-Thr-Phe-Cys-OH] (H-[dC]FY[X1]KTFC-OH; disulfide 1-8) |  | more than 100 times
10 | C[C@@H](O)[C@@H]1NC(=O)[C@H](CCCCN)NC(=O)[C@@H]([C@@H](C)c2ccc3ccccc3c2)NC(=O)[C@H](Cc2ccc(O)cc2)NC(=O)[C@H](Cc2ccccc2)NC(=O)[C@@H](N)CSSC[C@@H](C(=O)O)NC(=O)[C@H](Cc2ccccc2)NC1=O [Peptide No. 17, (cyclo)H-Cys-Phe-Tyr-threo-(2R,3S)C^βMe-2Nal-Lys-Thr-Phe-Cys-OH] (H-CFY[d2Nal(3S-Me)]KTFC-OH; disulfide 1-8) | show selectivity for binding to SSTR4 | 
11 | C[C@H](c1ccc2ccccc2c1)[C@@H]1NC(=O)[C@H](Cc2ccc(O)cc2)NC(=O)[C@H](Cc2ccccc2)NC(=O)[C@@H](N)CSSC[C@@H](C(=O)O)NC(=O)[C@H](Cc2ccccc2)NC(=O)[C@H]([C@@H](C)O)NC(=O)[C@H](CCCCN)NC1=O [Peptide No. 17A, (cyclo)H-Cys-Phe-Tyr-threo-(2S,3R)C^βMe-2Nal-Lys-Thr-Phe-Cys-OH] (H-CFY[X1]KTFC-OH; disulfide 1-8) | show selectivity for binding to SSTR4 | ~100 times
12 | (cyclo)Cys-Phe-Val-Trp-Lys-Thr-Val-Cys-OH (CFVWKTVC-OH; disulfide 1-8 (inferred)) [Peptide No. 12F] | selective in binding to hSSTR4 | 

Same assay, conditions: inhibition of 125I-SRIF-28 radioligand binding, cloned human receptor

Row | Compound | IC50
13 | C[C@@H]1NC(=O)[C@H](Cc2ccccc2)NC(=O)[C@@H](N)CSSC[C@@H](C(=O)O)NC(=O)[C@H](Cc2ccccc2)NC(=O)[C@H]([C@@H](C)O)NC(=O)[C@H](CCCCN)NC(=O)[C@@H](Cc2c[nH]c3ccccc23)NC1=O [Peptide No. 11, (cyclo)H-Cys-Phe-Ala-D-Trp-Lys-Thr-Phe-Cys-OH] (H-CFA[dW]KTFC-OH; disulfide 1-8) | 0.98 nM
14 | C[C@H](c1ccc2ccccc2c1)[C@@H]1NC(=O)[C@H](Cc2ccc(O)cc2)NC(=O)[C@H](Cc2ccccc2)NC(=O)[C@H](N)CSSC[C@@H](C(=O)O)NC(=O)[C@H](Cc2ccccc2)NC(=O)[C@H]([C@@H](C)O)NC(=O)[C@H](CCCCN)NC1=O [Peptide No. 16A, (cyclo)H-D-Cys-Phe-Tyr-threo-(2S,3R)C^βMe-2Nal-Lys-Thr-Phe-Cys-OH] (H-[dC]FY[X1]KTFC-OH; disulfide 1-8) | 3.5 ± 0.5 nM
